The source made the active and inactive calls.
How the values were obtained:
Format in all cases: functional, organism-based
Staphylococcus aureus [1] = assay: Antimicrobial activity against Staphylococcus aureus expressing mgrA C12S mutant gene assessed as visible growth at 0.45 ug/ml after 24 hrs
Staphylococcus aureus [2] = assay: Antimicrobial activity against Staphylococcus aureus assessed as visible growth at 0.45 ug/ml after 24 hrs
Staphylococcus aureus [3] = assay: Antimicrobial activity against Staphylococcus aureus expressing mgrA C12S mutant gene harboring Pyj335-His-mgrA assessed as visible growth at 0.55 ug/ml after 24 hrs in presence of 20 uM paraquat
Staphylococcus aureus [4] = assay: Antimicrobial activity against Staphylococcus aureus expressing mgrA C12S mutant gene harboring plasmid Pyj335 assessed as visible growth at 0.35 ug/ml after 24 hrs
Staphylococcus aureus [5] = assay: Antimicrobial activity against Staphylococcus aureus assessed as visible growth at 0.20 ug/ml after 24 hrs
Staphylococcus aureus [6] = assay: Antimicrobial activity against Staphylococcus aureus assessed as visible growth at 0.65 ug/ml after 24 hrs in presence of 20 uM paraquat
Staphylococcus aureus [7] = assay: Antimicrobial activity against Staphylococcus aureus expressing mgrA C12S mutant gene assessed as visible growth at 0.65 ug/ml after 24 hrs
Staphylococcus aureus [8] = assay: Antimicrobial activity against Staphylococcus aureus assessed as visible growth at 0.20 ug/ml after 24 hrs in presence of 25 uM paraquat
Staphylococcus aureus [9] = assay: Antimicrobial activity against Staphylococcus aureus expressing mgrA C12S mutant gene assessed as visible growth at 0.20 ug/ml after 24 hrs
Staphylococcus aureus [10] = assay: Antimicrobial activity against Staphylococcus aureus expressing mgrA C12S mutant gene harboring Pyj335-His-mgrA assessed as visible growth at 0.75 ug/ml after 24 hrs in presence of 20 uM paraquat
Staphylococcus aureus [11] = assay: Antimicrobial activity against Staphylococcus aureus expressing mgrA C12S mutant gene harboring plasmid Pyj335 assessed as visible growth at 0.20 ug/ml after 24 hrs in presence of 25 uM paraquat
Staphylococcus aureus [12] = assay: Antimicrobial activity against Staphylococcus aureus expressing mgrA C12S mutant gene harboring plasmid Pyj335 assessed as visible growth at 0.75 ug/ml after 24 hrs
Staphylococcus aureus [13] = assay: Antimicrobial activity against Staphylococcus aureus expressing mgrA C12S mutant gene harboring plasmid Pyj335 assessed as visible growth at 0.65 ug/ml after 24 hrs
Staphylococcus aureus [14] = assay: Antimicrobial activity against Staphylococcus aureus expressing mgrA C12S mutant gene harboring plasmid Pyj335 assessed as visible growth at 0.55 ug/ml after 24 hrs in presence of 20 uM paraquat
Staphylococcus aureus [15] = assay: Antimicrobial activity against Staphylococcus aureus expressing mgrA C12S mutant gene harboring Pyj335-His-mgrA assessed as visible growth at 0.25 ug/ml after 24 hrs in presence of 20 uM paraquat
Staphylococcus aureus [16] = assay: Antimicrobial activity against Staphylococcus aureus assessed as visible growth at 0.55 ug/ml after 24 hrs in presence of 20 uM paraquat
Staphylococcus aureus [17] = assay: Antimicrobial activity against Staphylococcus aureus expressing mgrAC12S mutant gene assessed as visible growth at 0.20 ug/ml after 24 hrs in presence of 100 uM hydrogen peroxide
Staphylococcus aureus [18] = assay: Antimicrobial activity against Staphylococcus aureus expressing mgrA C12S mutant gene assessed as visible growth at 0.35 ug/ml after 24 hrs
Staphylococcus aureus [19] = assay: Antimicrobial activity against Staphylococcus aureus assessed as visible growth at 0.20 ug/ml after 24 hrs in presence of 100 uM hydrogen peroxide
Staphylococcus aureus [20] = assay: Antimicrobial activity against Staphylococcus aureus expressing mgrA C12S mutant gene harboring plasmid Pyj335 assessed as visible growth at 0.35 ug/ml after 24 hrs in presence of 20 uM paraquat
Staphylococcus aureus [21] = assay: Antimicrobial activity against Staphylococcus aureus assessed as visible growth at 0.35 ug/ml after 24 hrs in presence of 20 uM paraquat
Staphylococcus aureus [22] = assay: Antimicrobial activity against Staphylococcus aureus expressing mgrA C12S mutant gene harboring Pyj335-His-mgrA assessed as visible growth at 2.2 ug/ml after 24 hrs in presence of 20 uM paraquat
Staphylococcus aureus [23] = assay: Antimicrobial activity against Staphylococcus aureus assessed as visible growth at 1 ug/ml after 24 hrs
Staphylococcus aureus [24] = assay: Antimicrobial activity against Staphylococcus aureus expressing mgrA C12S mutant gene assessed as visible growth at 1.4 ug/ml after 24 hrs in presence of 20 uM paraquat
Staphylococcus aureus [25] = assay: Antimicrobial activity against Staphylococcus aureus assessed as visible growth at 2.2 ug/ml after 24 hrs in presence of 20 uM paraquat
Staphylococcus aureus [26] = assay: Antimicrobial activity against Staphylococcus aureus expressing mgrA C12S mutant gene harboring plasmid Pyj335-His-mgrA assessed as visible growth at 1.8 ug/ml after 24 hrs in presence of 20 uM paraquat
Staphylococcus aureus [27] = assay: Antimicrobial activity against Staphylococcus aureus expressing mgrA C12S mutant gene harboring plasmid Pyj335-His-mgrA assessed as visible growth at 1.1 ug/ml after 24 hrs in presence of 100 uM hydrogen peroxide
Staphylococcus aureus [28] = assay: Antimicrobial activity against Staphylococcus aureus expressing mgrA C12S mutant gene harboring plasmid Pyj335-His-mgrA assessed as visible growth at 1.1 ug/ml after 24 hrs
Staphylococcus aureus [29] = assay: Antimicrobial activity against Staphylococcus aureus expressing mgrA C12S mutant gene harboring plasmid Pyj335 assessed as visible growth at 2.2 ug/ml after 24 hrs
Staphylococcus aureus [30] = assay: Antimicrobial activity against Staphylococcus aureus expressing mgrA C12S mutant gene harboring plasmid Pyj335 assessed as visible growth at 0.6 ug/ml after 24 hrs
Staphylococcus aureus [31] = assay: Antimicrobial activity against Staphylococcus aureus expressing mgrA C12S mutant gene harboring Pyj335-His-mgrA assessed as visible growth at 1.1 ug/ml after 24 hrs in presence of 25 uM paraquat
Staphylococcus aureus [32] = assay: Antimicrobial activity against Staphylococcus aureus expressing mgrA C12S mutant gene harboring Pyj335-His-mgrA C12S assessed as visible growth at 1.1 ug/ml after 24 hrs in presence of 25 uM of paraquat
Staphylococcus aureus [33] = assay: Antimicrobial activity against Staphylococcus aureus expressing mgrAC12S mutant gene harboring plasmid Pyj335 assessed as visible growth at 1.1 ug/ml after 24 hrs in presence of 100 uM hydrogen peroxide
Staphylococcus aureus [34] = assay: Antimicrobial activity against Staphylococcus aureus expressing mgrA C12S mutant gene assessed as visible growth at 0.6 ug/ml after 24 hrs in presence of 20 uM paraquat
Staphylococcus aureus [35] = assay: Antimicrobial activity against Staphylococcus aureus assessed as visible growth at 2.2 ug/ml after 24 hrs
Staphylococcus aureus [36] = assay: Antimicrobial activity against Staphylococcus aureus expressing mgrA C12S mutant gene harboring plasmid Pyj335 assessed as visible growth at 1 ug/ml after 24 hrs in presence of 20 uM paraquat
Staphylococcus aureus [37] = assay: Antimicrobial activity against Staphylococcus aureus expressing mgrA C12S mutant gene harboring Pyj335-His-mgrA assessed as visible growth at 1 ug/ml after 24 hrs in presence of 20 uM paraquat
Staphylococcus aureus [38] = assay: Antimicrobial activity against Staphylococcus aureus assessed as visible growth at 1.8 ug/ml after 24 hrs in presence of 20 uM paraquat

Measured: Activity

O=C(O)c1cn(C2CC2)c2cc(N3CCNCC3)c(F)cc2c1=O [CIPROFLOXACIN]
active: Staphylococcus aureus [2] | Staphylococcus aureus [5] | Staphylococcus aureus [6] | Staphylococcus aureus [8] | Staphylococcus aureus [10] | Staphylococcus aureus [12] | Staphylococcus aureus [16] | Staphylococcus aureus [19]
inactive: Staphylococcus aureus [1] | Staphylococcus aureus [3] | Staphylococcus aureus [4] | Staphylococcus aureus [7] | Staphylococcus aureus [9] | Staphylococcus aureus [11] | Staphylococcus aureus [13] | Staphylococcus aureus [14] | Staphylococcus aureus [15] | Staphylococcus aureus [17] | Staphylococcus aureus [18] | Staphylococcus aureus [20] | Staphylococcus aureus [21]

CN[C@H](CC(C)C)C(=O)N[C@H]1C(=O)N[C@@H](CC(N)=O)C(=O)N[C@H]2C(=O)N[C@H]3C(=O)N[C@H](C(=O)N[C@H](C(=O)O)c4cc(O)cc(O)c4-c4cc3ccc4O)[C@H](O)c3ccc(c(Cl)c3)Oc3cc2cc(c3O[C@@H]2O[C@H](CO)[C@@H](O)[C@H](O)[C@H]2O[C@H]2C[C@](C)(N)[C@H](O)[C@H](C)O2)Oc2ccc(cc2Cl)[C@H]1O [VANCOMYCIN]
inactive: Staphylococcus aureus [23] | Staphylococcus aureus [24] | Staphylococcus aureus [26] | Staphylococcus aureus [29] | Staphylococcus aureus [30] | Staphylococcus aureus [33] | Staphylococcus aureus [34] | Staphylococcus aureus [36] | Staphylococcus aureus [37]
active: Staphylococcus aureus [22] | Staphylococcus aureus [25] | Staphylococcus aureus [27] | Staphylococcus aureus [28] | Staphylococcus aureus [31] | Staphylococcus aureus [32] | Staphylococcus aureus [35] | Staphylococcus aureus [38]

Source: ChEMBL document CHEMBL1240316, “An oxidation-sensing mechanism is used by the global regulator MgrA in Staphylococcus aureus” (2006)
